Measured values from US9623039B2, “Treatment and prevention of pathological conditions using iduna related techniques and compositions” (VALTED, LLC, priority 2010, dated 2017).
Where a SMILES comes first, the peptide text is derived from it. The star is where a group is joined. Cbz = O=C(OCc1ccccc1)*; CH2F = FC*

Assays:
PARP-1 = biological target: T1, PARP-1 (Homo sapiens, UniProt P09874); test: Chemiluminescent PARP assay (biotinylated PAR onto histone); assay type: biochemical; conditions: incorporation of biotinylated PAR onto histone proteins
T1 construct: purchased Trevigen
T1 sequence (P09874 whole entry): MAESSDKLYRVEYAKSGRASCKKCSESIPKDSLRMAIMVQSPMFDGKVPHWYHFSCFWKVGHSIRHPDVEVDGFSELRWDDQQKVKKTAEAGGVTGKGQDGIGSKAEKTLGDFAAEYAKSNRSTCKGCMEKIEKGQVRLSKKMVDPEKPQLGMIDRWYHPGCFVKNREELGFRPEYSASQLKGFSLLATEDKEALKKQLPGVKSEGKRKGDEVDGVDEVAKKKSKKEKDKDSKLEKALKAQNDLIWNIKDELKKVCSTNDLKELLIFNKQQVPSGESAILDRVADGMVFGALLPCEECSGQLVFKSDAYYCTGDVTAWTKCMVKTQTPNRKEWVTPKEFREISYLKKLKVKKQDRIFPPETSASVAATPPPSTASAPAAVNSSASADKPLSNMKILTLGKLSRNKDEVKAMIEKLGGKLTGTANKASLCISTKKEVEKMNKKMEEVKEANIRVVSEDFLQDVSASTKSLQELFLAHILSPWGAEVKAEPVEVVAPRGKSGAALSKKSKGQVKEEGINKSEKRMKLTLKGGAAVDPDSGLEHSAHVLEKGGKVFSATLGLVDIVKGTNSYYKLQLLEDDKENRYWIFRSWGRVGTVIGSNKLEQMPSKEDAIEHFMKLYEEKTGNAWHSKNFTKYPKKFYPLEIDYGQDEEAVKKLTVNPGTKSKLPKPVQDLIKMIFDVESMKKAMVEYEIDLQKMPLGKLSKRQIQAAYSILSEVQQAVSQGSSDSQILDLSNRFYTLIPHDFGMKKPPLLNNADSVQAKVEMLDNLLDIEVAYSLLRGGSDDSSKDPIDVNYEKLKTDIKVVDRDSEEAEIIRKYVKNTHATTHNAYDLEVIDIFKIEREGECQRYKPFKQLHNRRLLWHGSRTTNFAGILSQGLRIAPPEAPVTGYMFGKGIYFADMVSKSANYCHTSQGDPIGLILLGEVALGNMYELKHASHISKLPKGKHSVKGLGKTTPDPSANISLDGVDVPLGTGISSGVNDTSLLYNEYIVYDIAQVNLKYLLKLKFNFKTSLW
Protocol: Because PARP-1 activation plays a prominent role in NMDA excitotoxicity we tested whether PARP-1 activity is directly affected by Iduna. PARP-1 activity was assessed by incorporation of biotinylated PAR onto histone proteins.
Chemiluminescent PARP assay for poly(ADP-ribosyl)ation of Histone H1: Activity of PARP-1 was determined by Trevigen Universal chemiluminescent PARP assay kit (Trevigen, Gaithersburg, Md., USA) in the presence of Iduna or the PARP-1 inhibitor 3-aminobenzamide (3-AB). According to manufacturer's instructions, the incorporation of biotinylated NAD+ (Trevigen) into the poly(ADP-ribose) polymer primed at solid phase immobilized histone H1 (Trevigen) was detected by the chemiluminescent assay, either in the presence or absence of recombinant Iduna. Reactions were performed with 34 μM total biotinylated NAD+ for 60 min at 25° C. in triplicates. Chemiluminescence was measured using a fluorescence multi-well plate reader (SOSTmax, Sunnyvale, Calif.) with an excitation at 544 nm excitation/590 nm emission. In the parallel wells, PARP1 activity was measured after the 3-aminobenzamide treatment at the same concentration of biotinylated NAD+ (34 μM).

MCF7 cells = test: Laser micro-irradiation-induced DNA damage, recruitment of GFP-Iduna; assay type: cell-based, human; conditions: 405 nm laser microirradiation
Protocol: Live-cell imaging and Laser micro-irradiation-induced DNA damage: For induction of localized DNA damage, MCF 7 cells stably expressing GFP-Iduna or GFP-Iduna-YRAA were plated onto 25 mm glass bottom culture dishes for 48 h. Cells were presensitized with 10 μM 5-bromo-2′-deoxyuridine (BrdU, Sigma) for 24 h. Cells were incubated with 2 μM Hoechst (Invitrogen) for 5 min and mounted on a preheated (37° C.) stage on a Zeiss LSM 710 confocal microscope equipped with 405 nm laser source. A laser microbeam was focused on a small rectangular strip of nucleus through 63× oil objective to induce localized DNA damage. The laser setting was set to 100% power output with a scanning speed of 1 and 6-10 laser iterations. The kinetics were calculated using Zeiss Zen 2010 software. Time point before irradiation represents—1 min and the time point just after irradiation represent 0 min. Each data series was normalized with respect to base line data intensity values.

primary neurons = test: H2O2-induced cell death in primary neurons; assay type: cell-based, mouse
Protocol: FIGS. 44 and 45—Iduna protects against peroxide-induced cell death in primary neurons. Primary neuronal cultures were transduced with lentiviruses expressing GFP, GFP-Iduna or GFP-Iduna-YRAA. 4 days following lentiviral transduction, cultures were treated with H2O2 (100 μM or 500 μM) and cell death assessed 24 h later using PI and Hoechst staining.
Cell Death Assessment: Following exposure of neuronal cultures to the various treatments neuronal survival was quantified and presented as percent of cell death. Percent cell death was determined as the ratio of live-to-dead cells compared with the percent cell death in control wells to account for cell death attributable to mechanical stimulation of the cultures. Quantification of neuronal survival was determined by staining treated cultures with 5 μM Hoechst 33342 and 2 μM propidium iodide (PI) (Invitrogen, Carlsbad, Calif.). Culture plates were placed on a mechanized stage of a Zeiss microscope and photomicrographs were collected by a blinded observer. The numbers of total and dead (PI positive) cells were counted by automated computer assisted software (Axiovision 4.6, Zeiss, Germany). The raw counts are presented in an Excel file for generation of percent cell death and statistical analysis. Glial nuclei fluoresce at a lower intensity than neuronal nuclei and were gated out by the software program. […]

neuronal cultures = test: Caspase-dependent cell death (camptothecin, staurosporine) in neuronal cultures; assay type: cell-based, mouse; conditions: for protection against cell death: 24 h
Protocol: FIG. 42—Neuronal cultures expressing lenti-viral mediated GFP, GFP-Iduna or GFP-Iduna-YRAA were treated with camptothecin (CPT, 20 μM) and cell death assessed 24 h later using PI and Hoechst staining. […] Data represent the mean±SEM, n=4 of two independent experiments. *p<0.05 by ANOVA with Tukey-Kramer's posthoc test.
FIG. 43—Neuronal cultures expressing lenti-viral mediated GFP, GFP-Iduna or GFP-Iduna-YRAA were treated with staurosporine (STS, 500 nM) and cell death assessed 24 h later using PI and Hoechst staining. […] Data represent the mean±SEM, n=4 of two independent experiments. *p<0.05 by ANOVA with Tukey-Kramer's posthoc test.
Cell Death Assessment: Following exposure of neuronal cultures to the various treatments neuronal survival was quantified and presented as percent of cell death. Percent cell death was determined as the ratio of live-to-dead cells compared with the percent cell death in control wells to account for cell death attributable to mechanical stimulation of the cultures. Quantification of neuronal survival was determined by staining treated cultures with 5 μM Hoechst 33342 and 2 μM propidium iodide (PI) (Invitrogen, Carlsbad, Calif.). Culture plates were placed on a mechanized stage of a Zeiss microscope and photomicrographs were collected by a blinded observer. The numbers of total and dead (PI positive) cells were counted by automated computer assisted software (Axiovision 4.6, Zeiss, Germany). The raw counts are presented in an Excel file for generation of percent cell death and statistical analysis. Glial nuclei fluoresce at a lower intensity than neuronal nuclei and were gated out by the software program. At least two separate experiments using four separate wells were performed for all data points.

PAR polymer = PAR polymer overlay / dot blot (far western); assay type: binding; conditions: PAR polymer overlay assay
Text: PAR binding is specified by a sequence of approximately 20 amino acids containing N-terminal basic amino acids and a C-terminal region containing alternating hydrophobic and basic amino acids (FIG. 24). Iduna contains a predicted PAR polymer binding sequence within amino acids 144-167 of the WWE domain (FIGS. 1 and 24). The PAR-binding domain was defined by comparing to the consensus sequence for PAR-binding and the known PAR binding domain of Histone 3 (FIG. 24). HEK293 cells were transfected with GFP, GFP-Iduna lacking the WWE domain (GFP-IdunaΔWWE), GFP-Iduna lacking the RF domain (GFP-IdunaARF), and full-length GFP-Iduna, followed by immunoprecipitation with a GFP antibody. […] Only GFP-Iduna-ARF and full-length GFP-Iduna can co-immunoprecipiate PAR binding proteins (FIG. 25). The critical amino acids in the PAR binding domain, 156Y and 157R, were mutated to 156A and 157A in full length Iduna (Iduna-YRAA). […] Similar results are obtained with a biotin-tagged PAR polymer followed by detection with an anti-biotin antibody (FIG. 26). […] Histone H3 is a known PAR binding protein and was used as a positive control for the PAR overlay assay. […] An assay based on electrophorectic mobility shift (EMSA) for PAR binding was developed to monitor PAR polymer binding to Iduna. […]

Compound: NC(=O)c1cccc(N)c1 [3-AB, 3-aminobenzamide, reference compound]
- PARP-1 activity (PARP-1): inhibits PARP-1 activity

Compound: CN(C)Cc1ccc(-c2nc3cccc4c3n2CCNC4=O)cc1 [AG14361]
- recruitment of GFP-Iduna to laser-induced DNA breaks (MCF7 cells): blocks the translocation of Iduna

Compound: O=C1NCCc2c(OCCCCN3CCCCC3)cccc21 [DPQ]
- protection against H2O2 toxicity (primary neurons; 100 μM H2O2): only protected against 100 μM H2O2 toxicity
- protection against H2O2 toxicity (primary neurons; 500 μM H2O2): Neither GFP-Iduna nor DPQ protect

Compound: COC(=O)C[C@H](NC(=O)[C@H](C)NC(=O)[C@@H](NC(=O)OCc1ccccc1)C(C)C)C(=O)CF [z-VAD fmk] (Cbz-Val-Ala-Asp(OMe)-CH2F)
- protection against cell death (neuronal cultures; camptothecin 20 μM): provides protection
- apoptotic cell death (neuronal cultures; staurosporine 500 nM or camptothecin 20 μM): inhibited cell death
- protection against cell death (neuronal cultures; staurosporine 500 nM): provides protection

Compound: Iduna 144-167: synthesized peptide fragment of the predicted PAR polymer binding sequence, amino acids 144-167 of the WWE domain (LYVADLENMVQYRRNEHGRRRKIK; UniProt Q9NTX7 144-167, looked up, fragment)
- PAR polymer binding (PAR polymer): binds to PAR polymer in a manner comparable to full-length Iduna
